Patent publication US20250009861A1, “ANTI-CANCER VACCINE COMPOSITION COMPRISING PEPTIDES DERIVED FROM TUMOR-ASSOCIATED ANTIGEN, AND ADJUVANT CONSISTING OF LIPOPEPTIDE AND IMMUNOACTIVE SUBSTANCE, AND USE THEREOF” (CHA VACCINE RESEARCH INSTITUTE CO., LTD, priority 2021, published 2025)

The sequences below were run on peripheral blood mononuclear cells (PBMCs) (assay: IFN-γ ELISPOT immunogenicity assay in PBMCs). Conditions: single peptides, PBMCs of healthy people, compared to control untreated with peptides; FIG. 1.
Assay type: cell-based, human
Method: To confirm the immunogenicity of the 13 peptides selected in Example 1, interferon gamma (IFNg)-enzyme linked immuno-SPOT assay (ELISPOT) was performed.
This experiment is a sensitive immunoassay that can detect cytokines secreted by a single cell. By attaching the cytokines secreted when cells are activated to a capture antibody, the secreted cytokines can be measured without being affected by proteins expressed on the cell surface or proteolytic enzymes. After attaching the cytokine to the capture antibody, the cells are removed, a detecting antibody conjugated to an enzyme that can recognize the attached capture antibody is added, and a chromogenic substrate for the enzyme is added, forming a chromogenic spot at the location of the cell secreting the cytokine, and the number of spots can be used to determine the number of cells that have responded to the stimulating antigen.
The peripheral blood mononuclear cells (PBMCs) required for the experiment were isolated from human venous blood as follows. The venous blood was diluted with 1×PBS, placed in SepMate-50 tubes, and centrifuged at 800 g for 20 minutes at room temperature. After centrifugation, the plasma and the separated PBMCs were washed, placed in each well of a 6 well tissue culture plate at a concentration of 1×10^6 cells/mL, and cultured overnight in an incubator (37° C., 5% CO2). The next day, the PBMC culture solution was recovered and centrifuged at 2000 rpm for 15 minutes at room temperature. After centrifugation, PBMCs were seeded in a 6 well cell culture plate, and peptides were added thereto and cultured to stimulate the cells.
At this time, the 13 peptides selected in Example 1 were treated alone or with various peptide combinations, and an untreated group and a ConA group were also prepared for comparative analysis. […] After attaching ELI-FOIL to the dried ELISPOT plate and stamping the membrane, the number of spots in each well was read using an ELISPOT reader. […]

Row | Sequence | immunogenicity (IFN-γ ELISPOT spots)
1 | TQHFVQENYLEY [CHA-10, Mage-A3 (246-260) derived peptide, HLA class II, DRB1; excluded] | lowest immunogenicity
2 | FLWGPRALV [CHA-11] | lowest immunogenicity
3 | LMLGEFLKL [CHA-6, Survivin (97-104) derived peptide, HLA class I, A02; excluded] | lowest immunogenicity
